Measured values taken from patent publication US8937048B2, “Anti-angiogenic compounds” (Covx Technologies Ireland, Limited, priority 2008, dated 2015).
Where a SMILES comes first, the peptide text is derived from it. Bridges are numbered along the chain shown (N, C = ends).

Target: T1, recombinant human VEGF165 (Homo sapiens, UniProt P15692)
T1 sequence (P15692 27-191 isoform P15692-4): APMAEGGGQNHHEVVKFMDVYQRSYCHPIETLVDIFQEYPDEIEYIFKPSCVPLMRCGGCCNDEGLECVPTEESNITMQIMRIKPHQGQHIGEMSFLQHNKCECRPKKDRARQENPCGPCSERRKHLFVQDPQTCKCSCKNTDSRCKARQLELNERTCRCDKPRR
Test: VEGF peptide binding assay (competition ELISA, VEGF165 binding to coated VEGFR2/Fc)
Procedure: High-binding half-well 96-well plates (Costar #3690) were coated with recombinant human VEGFR2/Fc (50 ng/well) in 50 μl PBS, and incubated at 4° C. overnight. After washing the plates three times with 1× washing buffer (KPL Cat#50-65-00) and blocking with Superblock (Scytek #AAA500) at room temperature (RT) for 1 hour, VEGF-peptides of the invention were serially diluted (concentrations: 0.128-10,000 nM) in the presence of 25 ng/ml of recombinant human VEGF165 in […] Superblock, and were then added to the 96-well plates and incubated at RT for 1 hour. Peptides of the invention tested in this fashion were all capped at the amino terminus with a C(O)CH3 group and at the carboxyl terminus with a NH2 group. The plates were then washed three times with washing buffer, and a diluted (1:500) biotinylated anti-human VEGF antibody (R&D systems, Cat# BAF293) was added and incubated at RT for 2 hours. After washing the plates, streptavidin HRP conjugate (1:200 in Superblock) (R&D systems, Cat# DY998) was added to detect the bound anti-VEGF antibody, followed by addition of tetramethylbenzidine (TMB) substrate (Pierce, Cat#34021) for color development. The reaction was stopped with 2 M H2SO4. OD450 was measured using SpectraMax (Molecular Device) with a correction wavelength of 540 nm. The data were analyzed using Prism software. OD450 values were plotted as a function of the concentrations of the VEGF peptides. IC50 values, indicative of the potency of the VEGF peptides to inhibit VEGF-VEGFR2 interaction, were obtained using a sigmoid dose-response curve fit in Prism.

Row | Structure (SMILES) | IC50 [nM]
1 | CC[C@H](C)[C@@H]1NC(=O)[C@H](CC(=O)O)NC(=O)[C@@H](NC(=O)[C@H](CC(N)=O)NC(=O)[C@@H]2CCCN2C(=O)[C@H](CCC(=O)O)NC(=O)[C@@H](NC(C)=O)C(C)C)CSSC[C@@H](C(=O)N[C@@H](Cc2ccccc2)C(=O)N[C@@H](CCC(=O)O)C(=O)N[C@@H](CCCNC(=N)N)C(=O)N[C@@H](CC(C)C)C(=O)N[C@@H](Cc2ccc(O)cc2)C(=O)NCC(=O)N[C@@H](CC(C)C)C(=O)N[C@@H](Cc2ccc(O)cc2)C(N)=O)NC(=O)[C@H](CCC(=O)O)NC(=O)[C@H](Cc2c[nH]c3ccccc23)NC(=O)[C@H](C(C)C)NC(=O)[C@H](Cc2c[nH]c3ccccc23)NC(=O)[C@H](CCSC)NC(=O)[C@H](C(C)C)NC(=O)[C@H](Cc2c[nH]cn2)NC1=O [Compound 44, VEPNCDIHVMWVWECFERLYGLY] (Ac-VEPNCDIHVMWVWECFERLYGLY-NH2; disulfide 5-15 (inferred)) | 54.6
2 | CC[C@H](C)[C@@H]1NC(=O)[C@H](CC(=O)O)NC(=O)[C@@H](NC(=O)[C@H](CC(N)=O)NC(=O)[C@@H]2CCCN2C(=O)[C@H](CCC(=O)O)NC(=O)[C@@H](NC(C)=O)C(C)C)CSSC[C@@H](C(=O)N[C@@H](Cc2ccccc2)C(=O)N[C@@H](CCC(=O)O)C(=O)N[C@@H](CCCNC(=N)N)C(=O)N[C@@H](CC(C)C)C(=O)N[C@@H](Cc2ccc(O)cc2)C(=O)NCC(=O)NCC(=O)NCC(N)=O)NC(=O)[C@H](CCC(=O)O)NC(=O)[C@H](Cc2c[nH]c3ccccc23)NC(=O)[C@H](C(C)C)NC(=O)[C@H](Cc2c[nH]c3ccccc23)NC(=O)[C@H](CCSC)NC(=O)[C@H](C(C)C)NC(=O)[C@H](Cc2c[nH]cn2)NC1=O [Compound 61, VEPNCDIHVMWVWECFERLYGGG] (Ac-VEPNCDIHVMWVWECFERLYGGG-NH2; disulfide 5-15 (inferred)) | 23.6
3 | CC[C@H](C)[C@@H]1NC(=O)[C@H](CC(=O)O)NC(=O)[C@@H](NC(=O)[C@H](CC(N)=O)NC(=O)[C@@H]2CCCN2C(=O)[C@H](CCC(=O)O)NC(=O)[C@@H](NC(C)=O)C(C)C)CSSC[C@@H](C(=O)N[C@@H](Cc2ccccc2)C(=O)N[C@@H](CCC(=O)O)C(=O)N[C@@H](CCCNC(=N)N)C(=O)N[C@@H](CC(C)C)C(=O)N[C@@H](CCSC)C(=O)N[C@@H](CCCNC(=N)N)C(=O)N[C@@H](CC(C)C)C(=O)N[C@H](C(N)=O)[C@@H](C)O)NC(=O)[C@H](CCC(=O)O)NC(=O)[C@H](Cc2c[nH]c3ccccc23)NC(=O)[C@H](C(C)C)NC(=O)[C@H](Cc2c[nH]c3ccccc23)NC(=O)[C@H](CCSC)NC(=O)[C@H](C(C)C)NC(=O)[C@H](Cc2c[nH]cn2)NC1=O [Compound 46, VEPNCDIHVMWVWECFERLMRLT] (Ac-VEPNCDIHVMWVWECFERLMRLT-NH2; disulfide 5-15 (inferred)) | 44.1
4 | CC[C@H](C)[C@@H]1NC(=O)[C@H](CC(=O)O)NC(=O)[C@@H](NC(=O)[C@H](CC(N)=O)NC(=O)[C@@H]2CCCN2C(=O)[C@H](CCC(=O)O)NC(=O)[C@@H](NC(C)=O)C(C)C)CSSC[C@@H](C(=O)N[C@@H](Cc2ccccc2)C(=O)N[C@@H](CCC(=O)O)C(=O)N[C@@H](CCCNC(=N)N)C(=O)N[C@@H](CC(C)C)C(=O)N[C@@H](Cc2ccccc2)C(=O)N[C@@H](CCCNC(=N)N)C(=O)N[C@@H](CCC(=O)O)C(=O)N[C@@H](C)C(N)=O)NC(=O)[C@H](C(C)C)NC(=O)[C@H](Cc2c[nH]c3ccccc23)NC(=O)[C@H](C(C)C)NC(=O)[C@H](Cc2c[nH]c3ccccc23)NC(=O)[C@H](CCSC)NC(=O)[C@H](C(C)C)NC(=O)[C@H](Cc2c[nH]cn2)NC1=O [Compound 36, VEPNCDIHVMWVWVCFERLFREA] (Ac-VEPNCDIHVMWVWVCFERLFREA-NH2; disulfide 5-15 (inferred)) | 172
5 | CC[C@H](C)[C@@H]1NC(=O)[C@H](CC(=O)O)NC(=O)[C@@H](NC(=O)[C@H](CC(N)=O)NC(=O)[C@@H]2CCCN2C(=O)[C@H](CCC(=O)O)NC(=O)[C@@H](NC(C)=O)C(C)C)CSSC[C@@H](C(=O)N[C@@H](Cc2ccccc2)C(=O)N[C@@H](CCC(=O)O)C(=O)N[C@@H](CCCNC(=N)N)C(=O)N[C@@H](CC(C)C)C(=O)N[C@@H](Cc2ccc(O)cc2)C(=O)NCC(=O)N[C@@H](Cc2c[nH]c3ccccc23)C(=O)NCC(N)=O)NC(=O)[C@H](CCC(=O)O)NC(=O)[C@H](Cc2c[nH]c3ccccc23)NC(=O)[C@H](C(C)C)NC(=O)[C@H](Cc2c[nH]c3ccccc23)NC(=O)[C@H](CCSC)NC(=O)[C@H](C(C)C)NC(=O)[C@H](Cc2c[nH]cn2)NC1=O [Compound 42, VEPNCDIHVMWVWECFERLYGWG] (Ac-VEPNCDIHVMWVWECFERLYGWG-NH2; disulfide 5-15 (inferred)) | 68.2
6 | CC[C@H](C)[C@@H]1NC(=O)[C@H](CC(=O)O)NC(=O)[C@@H](NC(=O)[C@H](CC(N)=O)NC(=O)[C@@H]2CCCN2C(=O)[C@H](CCC(=O)O)NC(=O)[C@@H](NC(C)=O)C(C)C)CSSC[C@@H](C(=O)N[C@@H](Cc2ccccc2)C(=O)N[C@@H](CCC(=O)O)C(=O)N[C@@H](CCCNC(=N)N)C(=O)N[C@@H](CC(C)C)C(=O)N[C@@H](CCSC)C(=O)NCC(=O)N[C@@H](CC(C)C)C(=O)N[C@H](C(N)=O)[C@@H](C)O)NC(=O)[C@H](CCC(=O)O)NC(=O)[C@H](Cc2c[nH]c3ccccc23)NC(=O)[C@H](C(C)C)NC(=O)[C@H](Cc2c[nH]c3ccccc23)NC(=O)[C@H](CCSC)NC(=O)[C@H](C(C)C)NC(=O)[C@H](Cc2c[nH]cn2)NC1=O [Compound 59, VEPNCDIHVMWVWECFERLMGLT] (Ac-VEPNCDIHVMWVWECFERLMGLT-NH2; disulfide 5-15 (inferred)) | 25
7 | CC[C@H](C)[C@@H]1NC(=O)[C@H](CC(=O)O)NC(=O)[C@@H](NC(=O)[C@H](CC(N)=O)NC(=O)[C@@H]2CCCN2C(=O)[C@H](CCC(=O)O)NC(=O)[C@@H](NC(C)=O)C(C)C)CSSC[C@@H](C(=O)N[C@@H](Cc2ccccc2)C(=O)N[C@@H](CCC(=O)O)C(=O)N[C@@H](CCCNC(=N)N)C(=O)N[C@@H](CC(C)C)C(=O)N[C@H](C(=O)N[C@@H](CCCCN)C(N)=O)C(C)C)NC(=O)[C@H](CCC(=O)O)NC(=O)[C@H](Cc2c[nH]c3ccccc23)NC(=O)[C@H](C(C)C)NC(=O)[C@H](Cc2c[nH]c3ccccc23)NC(=O)[C@H](CCSC)NC(=O)[C@H](C(C)C)NC(=O)[C@H](Cc2c[nH]cn2)NC1=O [Compound 48, VEPNCDIHVMWVWECFERLVK] (Ac-VEPNCDIHVMWVWECFERLVK-NH2; disulfide 5-15 (inferred)) | 42.4
8 | CC[C@H](C)[C@@H]1NC(=O)[C@H](CC(=O)O)NC(=O)[C@@H](NC(=O)[C@H](CC(N)=O)NC(=O)[C@@H]2CCCN2C(=O)[C@H](CCC(=O)O)NC(=O)[C@@H](NC(C)=O)C(C)C)CSSC[C@@H](C(=O)N[C@@H](Cc2ccccc2)C(=O)N[C@@H](CCC(=O)O)C(=O)N[C@@H](CCCNC(=N)N)C(=O)N[C@@H](CC(C)C)C(=O)N[C@@H](CCSC)C(=O)N[C@@H](CCCCN)C(N)=O)NC(=O)[C@H](C(C)C)NC(=O)[C@H](Cc2c[nH]c3ccccc23)NC(=O)[C@H](C(C)C)NC(=O)[C@H](Cc2c[nH]c3ccccc23)NC(=O)[C@H](CCSC)NC(=O)[C@H](C(C)C)NC(=O)[C@H](Cc2c[nH]cn2)NC1=O [Compound 38, VEPNCDIHVMWVWVCFERLMK] (Ac-VEPNCDIHVMWVWVCFERLMK-NH2; disulfide 5-15 (inferred)) | 92.6
9 | CC[C@H](C)[C@@H]1NC(=O)[C@H](CC(=O)O)NC(=O)[C@@H](NC(=O)[C@H](CC(N)=O)NC(=O)[C@@H]2CCCN2C(=O)[C@H](CCC(=O)O)NC(=O)[C@@H](NC(C)=O)C(C)C)CSSC[C@@H](C(=O)N[C@@H](Cc2ccccc2)C(=O)N[C@@H](CCC(=O)O)C(=O)N[C@@H](CCCNC(=N)N)C(=O)N[C@@H](CC(C)C)C(=O)N[C@@H](Cc2ccc(O)cc2)C(=O)NCC(=O)NCC(=O)N[C@@H](Cc2ccccc2)C(N)=O)NC(=O)[C@H](CCC(=O)O)NC(=O)[C@H](Cc2c[nH]c3ccccc23)NC(=O)[C@H](C(C)C)NC(=O)[C@H](Cc2c[nH]c3ccccc23)NC(=O)[C@H](CCSC)NC(=O)[C@H](C(C)C)NC(=O)[C@H](Cc2c[nH]cn2)NC1=O [Compound 56, VEPNCDIHVMWVWECFERLYGGF] (Ac-VEPNCDIHVMWVWECFERLYGGF-NH2; disulfide 5-15 (inferred)) | 26.2
